This is an account of results in patent publication US20240130367A1, “PLANT GROWTH PROMOTERS” (University of Durham, priority 2020, published 2024).

Structures can show the parent of a compound that is named as a salt.

The experiment relates to Arabidopsis thaliana wild-type. As to the kind of experiment: Hypocotyl growth assay under reduced light. The format is in vivo. The settings on record: hypocotyl, 100 μM; for New length (cm) / New Length: three days; for New length (cm): trials 1, 2, 3 and SAM each with own DMSO control; for New Length: in cm. The text has this:
Arabidopsis thaliana wild-type seeds were from laboratory stocks of Columbia (Col-0) and Landsberg erecta (Ler-0) accessions. Arabidopsis thaliana is a dicot. The mutants of gid1 (J. Griffiths, et al., Plant Cell, 2006, 18, 3399-3414) were obtained from Dr. Steve Thomas (Rothamsted Research, UK) and were in a Col-0 background, whilst the della quintuple mutant (S. H. Feng et al. Nature, 2008, 451: 475-479) and ga1-5 (I. Fridborg et al. Plant Cell, 1999, 11: 1019-1031) were in a Ler-0 background and was obtained from the Nottingham Arabidopsis Stock Centre (NASC). The A. thaliana line expressing RGA-GFP (A. L. Silverstone et al. The Plant Cell, 2001, 13: 1555-1565), Col-0 background was obtained from Prof. Keith Lindsey (Durham University, UK). Seeds were plated out 1×MS medium pH 5.8 (T. Murashige and F. Skoog (1962) Physiologia Plantarum 15: 473-497) in petri dishes with a concentration of either 0.8% or 1.2% (w/v) phytoagar for root and hypocotyl measurements, respectively. After sowing seeds were stratified on plates at 4° C. for a minimum of 48 h to achieve synchronous germination. Seedlings were grown for either 7 or 2 days for root and hypocotyl measurements, respectively, prior to treatment with chemicals. For hypocotyl measurements, seeds were sown on nylon mesh (acid resistant monofilament nylon filter mesh fabric; GZ, model number H20M). Seedling were grown in a Percival (CU-36L5D, CLF plant climatics, Emersacker, Germany) with a photoperiod of 16/8 h with a light intensity of either 150 μmol m^2 s^−1 or 50 μmol m^2 s^−1 for root and hypocotyl measurements, respectively, and a temperature of 20±1° C.
After growing as described above seedlings for root assays were transferred to 1.2% (w/v) agar plates containing each chemical at a final concentration of 100 μM (the addition of the chemicals was performed when media had cooled to 50° C. after autoclaving), with an equivalent concentration of DMSO as control. At this stage the positions of the root tips were marked on the petri dish. The plants were subsequently grown vertically and after a further 5 days images of the plates were scanned and the root growth that occurred during the 5 days on chemicals was measured using ImageJ software. 18 seedlings were measured for each treatment. For hypocotyl measurements the assay performed was adapted from de Lucas et al. (2008, supra). After growing seedlings as described above, the nylon mesh was transferred across to the plates containing chemical. The plants were then placed in vertical orientation for three days under reduced light intensity (by covering plates with 2 layers of 80 g·m^2 white paper) before the plates were scanned. The measurement of hypocotyl was done using ImageJ software. At least 15 seedlings were measured for each plate.
To determine the mechanism of A1 action via the GA/DELLA signaling pathway, the response of A1 in a series of GA synthesis/signalling mutants was investigated. For these assays the focus was on hypocotyl growth, because it is well established that DELLA can inhibit the binding of PIFs to their target promoter leading to a reduction in GA-regulated hypocotyl growth (A. Castillon, H. Shen and E. Huq (2007) Trends in Plant Science, 12: 514-521.; de Lucas et al. 2008, supra; S. H. Feng et al. 2008, supra. To establish the use of A1 in this assay, hypocotyl growth was first tested by growing the seedlings on agar plates containing A1, with GA and PAC used as positive and negative controls, respectively, for three days in reduced light conditions to achieve a balance between maximum and minimum hypocotyl growth. […] Having established the hypocotyl assay, DELLA-dependence of the A1 effect was then confirmed genetically. To test this, a mutant line that lacks all DELLA (GAI, RGA, RGL1, RGL2 and RGL3) function was used.
The effect of additional compounds on hypocotyl growth was investigated using the same methods as described above (100 μM of each compound was used). […]

The mark [1] stands for this setting: relative to the DMSO control of the same trial.

For the compound `Cl.NCCNS(=O)(=O)c1ccc2c3c(cccc13)C(=O)N2` [JAR67, N-(2′-aminoethyl)-1,8-naphtholactam-5-sulfonamide Hydrogen Chloride], the “New length (cm)” value is recorded as 0.187 cm. Further, the “Relative growth (cm)” value under setting [1] is −0.2241.

Consider `Cl.NCCN(Cc1ccccc1)S(=O)(=O)c1cccc2ccccc12` [SAM2, N-(2′-aminoethyl)-N-benzylnaphthalene-1-sulfonamide Hydrogen Chloride], for which the “New length (cm)” value was found to be 0.191 cm. The “Relative growth (cm)” value under setting [1] was −0.03046.

As for `C=CCN(CCN)S(=O)(=O)c1cccc2ccccc12.Cl` [SAM1, N-(2′-aminolethyl)-N-(prop-2″-en-1′-yl)naphthalene-1-sulfonamide Hydrogen Chloride], the “New length (cm)” value turned out to be 0.193 cm. For the same compound, under setting [1], the “Relative growth (cm)” value is reported as −0.0203.

Take `COc1cccc(S(=O)(=O)NCCN)c1.Cl` [JAR490, N-(2′-aminoethyl)-3-methoxybenzene-1-sulfonamide Hydrochloride]: the “New Length” value is reported as 0.8299. For the same compound, the “Relative growth (cm)” value (relative to DMSO control) amounted to 0.2107.

`COc1ccccc1S(=O)(=O)NCCN.Cl` [JAR69, N-(2′-aminoethyl)-2-methoxybenzene-1-sulfonamide Hydrogen Chloride]: the “New length (cm)” value is given as 0.316 cm. Also, the “Relative growth (cm)” value under setting [1] worked out at 0.3112.

As to `CCCCCOc1ccc(S(=O)(=O)NCCN)c2ccccc12.Cl` [JAR70, N-(2′-aminoethyl)-4-pentoxynaphthalene-1-sulfonamide Hydrogen Chloride], the “New length (cm)” value was 0.173 cm. For the same compound, the “Relative growth (cm)” value under setting [1] was −0.2822.

For `CCOCCOc1c(Cl)cc(S(=O)(=O)NCCN)c2ccccc12.Cl` [JAR141, N-(2-azaniumylethyl)-3-chloro-4-(2-ethoxyethoxy)naphthalene-1-sulfonamide Chloride], the “New length (cm)” value is 0.4387 cm. Also, under setting [1], the “Relative growth (cm)” value came to 0.09026.

Turning to `CC(C)(C)c1ccc(S(=O)(=O)NCCN)cc1` [JAR484, N-(2′-aminoethyl)-4-tent-butylbenzene-1-sulfonamide Hydrochloride], the “New Length” value stood at 0.8713. In addition, the “Relative growth (cm)” value (relative to DMSO control) stood at 0.271.

Take `CCCCCOc1ccc2ccccc2c1S(=O)(=O)NCCN.Cl` [JAR68, N-(2′-aminoethyl)-2-pentoxynaphthalene-1-sulfonamide Hydrogen Chloride]: the “New length (cm)” value was 0.197 cm. Moreover, the “Relative growth (cm)” value under setting [1] is given as −0.1826.

For `CCCCCCOc1ccc(S(=O)(=O)NCCN)cc1.Cl` [JAR72, N-(2′-aminoethyl)-4-hexoxybenzene-1-sulfonamide Hydrogen Chloride], the “New length (cm)” value is recorded as 0.195 cm. Also, under setting [1], the “Relative growth (cm)” value is given as −0.1909.

For the compound `CNc1ccc(S(=O)(=O)NCCN)c2nonc12.Cl` [JAR143, 7-(methylamino)-N-(2′-aminoethyl)-2,1,3-benzoxadiazole-4-sulfonamide Hydrogen Chloride], the “New length (cm)” value was 0.2847 cm. The “Relative growth (cm)” value under setting [1] was −0.2925.

Consider `Cl.NCCNS(=O)(=O)c1cccc2cnccc12` [JAR32, N-(2′-aminoethyl)isoquinoline-5-sulfonamide Hydrogen Chloride], for which the “New length (cm)” value came out at 0.202 cm.

With `CNCCNS(=O)(=O)c1cccc2ccccc12` [JAR493, N-[2′-(methylamino)ethyl]naphthalene-1-sulfonamide Hydrochloride], the “New Length” value was 0.897. Besides, the “Relative growth (cm)” value (relative to DMSO control) amounted to 0.3085.

`NCCNS(=O)(=O)c1cccc2cccnc12` [JAR13, N-(2′-aminoethyl)quinoline-8-sulfonamide]: the “New length (cm)” value is 0.212 cm. Moreover, under setting [1], the “Relative growth (cm)” value is on record as −0.09787.

Turning to `CCCc1ccc(S(=O)(=O)NCCN)cc1` [JAR489, N-(2-aminoethyl)-4-propylbenzene-1-sulfonamide], the “New Length” value came out at 0.9133. Also, the “Relative growth (cm)” value (relative to DMSO control) turned out to be 0.3323.

Regarding `COc1ccc(S(=O)(=O)NCCN)c2ccccc12.Cl` [JAR33, N-(2′-aminoethyl)-4-methoxynaphthalene-1-sulfonamide Hydrogen Chloride], the “New length (cm)” value was 0.2986 cm. The “Relative growth (cm)” value under setting [1] was determined as 0.2705.

Regarding `Cl.NCCNS(=O)(=O)c1cccc2ccncc12` [JAR31, N-(2′-aminoethyl)isoquinoline-8-sulfonamide Hydrogen Chloride], the “New length (cm)” value came to 0.274 cm. In addition, the “Relative growth (cm)” value under setting [1] is on record as 0.166.

On to `NCCNS(=O)(=O)c1cccc2c(Cl)cccc12` [JAR482, N-(2′-aminoethyl)-5-chloronaphthalene-1-sulfonamide Hydrochloride], for which the “New Length” value stood at 0.5888.

Consider `Cl.NCCNS(=O)(=O)c1ccc(-c2ccccc2)cc1` [JAR479, N-(2′-aminoethyl)-[1,1″-biphenyl]-4-sulfonamide Hydrochloride], for which the “New Length” value was 0.7771. For the same compound, under “relative to DMSO control”, the “Relative growth (cm)” value is listed as 0.1335.

Take `NCCNS(=O)(=O)c1cccc(F)c1` [JAR478, N-(2-aminoethyl)-3-fluorobenzene-1-sulfonamide Hydrochloride]: the “New Length” value came out at 0.8424. The “Relative growth (cm)” value (relative to DMSO control) turned out to be 0.2289.

As for `CCOC(=O)C(C)N(CCN)S(=O)(=O)c1cccc2ccccc12.Cl` (centres unmarked) [SAM4, ethyl 2-[N-(2-azaniumylethyl)naphthalene-1-sulfonamido]propanoate Chloride], the “New length (cm)” value turned out to be 0.228 cm. In addition, under setting [1], the “Relative growth (cm)” value came to 0.1574.

As to `Cc1ccc(S(=O)(=O)NCCN)cc1.Cl` [JAR142, 4-methyl-N-(2′-aminoethyl)benzene-1-sulfonamide Hydrogen Chloride], the “New length (cm)” value worked out at 0.5868 cm. For the same compound, the “Relative growth (cm)” value under setting [1] is listed as 0.4584.

Consider `NCCCNS(=O)(=O)c1cccc2ccccc12` [JAR481, N-(3′-aminopropyl)naphthalene-1-sulfonamide Hydrochloride], for which the “New Length” value is reported as 0.8072. Moreover, the “Relative growth (cm)” value (relative to DMSO control) came out at 0.1775.

Turning to `CCOCCOc1ccc(S(=O)(=O)NCCN)c2ccccc12.Cl` [JAR145, N-(2′-aminoethyl)-4-(2″-ethoxyethoxy)naphthalene-1-sulfonamide Hydrogen Chloride], the “New length (cm)” value came to 0.6424 cm. Also, under setting [1], the “Relative growth (cm)” value is 0.5965.

`Cl.NCCNS(=O)(=O)c1cccc2ncccc12` [JAR30, N-(2′-aminoethyl)-quinoline-5-sulfonamide Hydrogen Chloride]: the “New length (cm)” value was 0.333 cm. The “Relative growth (cm)” value under setting [1] came out at 0.417.

Turning to `NCCNS(=O)(=O)c1ccc([N+](=O)[O-])cc1` [JAR483, N-(2′-aminoethyl)-4-nitrobenzene-1-sulfonamide Hydrochloride], the “New Length” value is recorded as 0.8707. In addition, the “Relative growth (cm)” value (relative to DMSO control) stood at 0.2701.

With `Cl.NCCNS(=O)(=O)C1CCCCC1` [JAR488, N-(2′-aminoethyl)cyclohexanesulfonamide Hydrochloride], the “New Length” value is reported as 0.668. Further, the “Relative growth (cm)” value (relative to DMSO control) was −0.02555.

Turning to `COc1ccc2ccccc2c1S(=O)(=O)NCCN.Cl` [JAR36, N-(2′-aminoethyl)-2-methoxynaphthalene-1-sulfonamide Hydrogen Chloride], the “New length (cm)” value is reported as 0.329 cm. For the same compound, the “Relative growth (cm)” value under setting [1] stood at 0.4.

As to `CN(CCN)S(=O)(=O)c1cccc2ccccc12` [JAR491, N-(2′-aminoethyl)-N-methylnaphthalene-1-sulfonamide], the “New Length” value was found to be 0.8285. Also, the “Relative growth (cm)” value (relative to DMSO control) is reported as 0.2085.
